Measurements as given in PubChem BioAssay (NCI).
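Where inhibition never reached the appropriate level, the endpoint shown equals the highest concentration tested. Otherwise, values were interpolated linearly from a five-concentration, 48-hour dose response in 96-well plates. TGI is the concentration that stops growth completely.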

Columns and labels:
Experiment in all cases: growth of human tumour cells (NCI), 48 h
SF-268 CNS = tested on: SF-268 CNS
HCT-15 colon = tested on: HCT-15 colon
RPMI-8226 leukemia = tested on: RPMI-8226 leukemia
OVCAR-8 ovarian = tested on: OVCAR-8 ovarian
SNB-19 CNS = tested on: SNB-19 CNS
IGROV1 ovarian = tested on: IGROV1 ovarian
SNB-75 CNS = tested on: SNB-75 CNS
786-0 renal = tested on: 786-0 renal
SK-OV-3 ovarian = tested on: SK-OV-3 ovarian
KM12 colon = tested on: KM12 colon
A498 renal = tested on: A498 renal
SF-295 CNS = tested on: SF-295 CNS
T-47D breast = tested on: T-47D breast
HOP-62 NSCLC = tested on: HOP-62 NSCLC
OVCAR-4 ovarian = tested on: OVCAR-4 ovarian
UO-31 renal = tested on: UO-31 renal
SK-MEL-2 melanoma = tested on: SK-MEL-2 melanoma
SR leukemia = tested on: SR leukemia
SN12C renal = tested on: SN12C renal
UACC-257 melanoma = tested on: UACC-257 melanoma
U251 CNS = tested on: U251 CNS
SF-539 CNS = tested on: SF-539 CNS
NCI/ADR-RES ovarian = tested on: NCI/ADR-RES ovarian
MDA-MB-231 breast = tested on: MDA-MB-231 breast
K-562 leukemia = tested on: K-562 leukemia
COLO 205 colon = tested on: COLO 205 colon
ACHN renal = tested on: ACHN renal
EKVX NSCLC = tested on: EKVX NSCLC
CCRF-CEM leukemia = tested on: CCRF-CEM leukemia
DU-145 prostate = tested on: DU-145 prostate
HCT-116 colon = tested on: HCT-116 colon
OVCAR-3 ovarian = tested on: OVCAR-3 ovarian
RXF 393 renal = tested on: RXF 393 renal
M14 melanoma = tested on: M14 melanoma
HL-60(TB) leukemia = tested on: HL-60(TB) leukemia
A549 NSCLC = tested on: A549 NSCLC
NCI-H522 lung = tested on: NCI-H522 lung
TK-10 renal = tested on: TK-10 renal
SW-620 colon = tested on: SW-620 colon
MOLT-4 leukemia = tested on: MOLT-4 leukemia
MDA-MB-435 = tested on: MDA-MB-435
NCI-H460 lung = tested on: NCI-H460 lung
NCI-H226 lung = tested on: NCI-H226 lung
MALME-3M melanoma = tested on: MALME-3M melanoma
SK-MEL-28 melanoma = tested on: SK-MEL-28 melanoma
UACC-62 melanoma = tested on: UACC-62 melanoma
HT29 colon = tested on: HT29 colon
BT-549 breast = tested on: BT-549 breast
LOX IMVI melanoma = tested on: LOX IMVI melanoma
MCF7 breast = tested on: MCF7 breast
MDA-N = tested on: MDA-N
OVCAR-5 ovarian = tested on: OVCAR-5 ovarian
HCC-2998 colon = tested on: HCC-2998 colon
SK-MEL-5 melanoma = tested on: SK-MEL-5 melanoma
NCI-H23 lung = tested on: NCI-H23 lung
HS 578T breast = tested on: HS 578T breast
PC-3 prostate = tested on: PC-3 prostate
CAKI-1 renal = tested on: CAKI-1 renal
HOP-92 NSCLC = tested on: HOP-92 NSCLC

O=C(O)c1ccccc1/C=C1\Cc2cc3c(cc2C1=O)CCC3
TGI (SF-268 CNS): > 100 µM | TGI (HCT-15 colon): 74.8 µM | TGI (RPMI-8226 leukemia): 55.2 µM | TGI (OVCAR-8 ovarian): > 100 µM | TGI (SNB-19 CNS): > 100 µM | TGI (IGROV1 ovarian): > 100 µM | TGI (SNB-75 CNS): 25 µM | TGI (786-0 renal): 70.5 µM | TGI (SK-OV-3 ovarian): > 100 µM | TGI (KM12 colon): > 100 µM | TGI (A498 renal): 80.1 µM | TGI (SF-295 CNS): 74.7 µM | TGI (T-47D breast): 45.6 µM | TGI (HOP-62 NSCLC): 65.2 µM | TGI (OVCAR-4 ovarian): 85.7 µM | TGI (UO-31 renal): > 100 µM | TGI (SK-MEL-2 melanoma): 55.4 µM | TGI (SR leukemia): 28.1 µM | TGI (SN12C renal): 56.8 µM | TGI (UACC-257 melanoma): 79.2 µM | TGI (U251 CNS): 94.3 µM | TGI (SF-539 CNS): 80.4 µM | TGI (NCI/ADR-RES ovarian): 66.2 µM | TGI (MDA-MB-231 breast): 51.2 µM | TGI (K-562 leukemia): 51.7 µM | TGI (COLO 205 colon): 44.8 µM | TGI (ACHN renal): > 100 µM | TGI (EKVX NSCLC): > 100 µM | TGI (CCRF-CEM leukemia): 44.2 µM | TGI (DU-145 prostate): > 100 µM | TGI (HCT-116 colon): 76.6 µM | TGI (OVCAR-3 ovarian): > 100 µM | TGI (RXF 393 renal): 56.5 µM | TGI (M14 melanoma): 53.7 µM | TGI (HL-60(TB) leukemia): 27.1 µM | TGI (A549 NSCLC): > 100 µM | TGI (NCI-H522 lung): 45.6 µM | TGI (TK-10 renal): 65.8 µM | TGI (SW-620 colon): 60.4 µM | TGI (MOLT-4 leukemia): 46.5 µM | TGI (MDA-MB-435): 51.5 µM | TGI (NCI-H460 lung): 81.9 µM | TGI (NCI-H226 lung): 80.8 µM | TGI (MALME-3M melanoma): > 100 µM | TGI (SK-MEL-28 melanoma): > 100 µM | TGI (UACC-62 melanoma): 57.8 µM | TGI (HT29 colon): 49.1 µM | TGI (BT-549 breast): > 100 µM | TGI (LOX IMVI melanoma): 31.4 µM | TGI (MCF7 breast): 68.5 µM | TGI (MDA-N): 38.9 µM | TGI (OVCAR-5 ovarian): > 100 µM | TGI (HCC-2998 colon): 68.3 µM | TGI (SK-MEL-5 melanoma): 38.1 µM | TGI (NCI-H23 lung): 58.8 µM

O=c1oc2ccccc2c(-c2ccc(O)cc2)c1Oc1ccccc1
TGI (SF-268 CNS): 25.6 µM | TGI (HCT-15 colon): > 70 µM | TGI (RPMI-8226 leukemia): > 100 µM | TGI (OVCAR-8 ovarian): > 31.6 µM | TGI (SNB-19 CNS): 50.6 µM | TGI (IGROV1 ovarian): 18.6 µM | TGI (SNB-75 CNS): > 79.3 µM | TGI (786-0 renal): 66.4 µM | TGI (SK-OV-3 ovarian): > 100 µM | TGI (KM12 colon): > 68.5 µM | TGI (A498 renal): 23.5 µM | TGI (SF-295 CNS): 53.6 µM | TGI (T-47D breast): > 100 µM | TGI (HOP-62 NSCLC): > 100 µM | TGI (OVCAR-4 ovarian): > 56.7 µM | TGI (HS 578T breast): 18.2 µM | TGI (UO-31 renal): 32.3 µM | TGI (SK-MEL-2 melanoma): 18.5 µM | TGI (SR leukemia): > 100 µM | TGI (PC-3 prostate): > 96.1 µM | TGI (SN12C renal): 55.3 µM | TGI (UACC-257 melanoma): 30.7 µM | TGI (U251 CNS): 24.9 µM | TGI (SF-539 CNS): > 75.5 µM | TGI (NCI/ADR-RES ovarian): > 100 µM | TGI (MDA-MB-231 breast): > 100 µM | TGI (K-562 leukemia): > 100 µM | TGI (COLO 205 colon): > 69.6 µM | TGI (ACHN renal): > 100 µM | TGI (EKVX NSCLC): 49.9 µM | TGI (CCRF-CEM leukemia): > 100 µM | TGI (DU-145 prostate): > 63.9 µM | TGI (HCT-116 colon): > 87.9 µM | TGI (CAKI-1 renal): > 75.7 µM | TGI (OVCAR-3 ovarian): > 63.3 µM | TGI (RXF 393 renal): > 74 µM | TGI (M14 melanoma): 32.1 µM | TGI (HL-60(TB) leukemia): > 100 µM | TGI (A549 NSCLC): > 66.9 µM | TGI (HOP-92 NSCLC): 26.6 µM | TGI (TK-10 renal): > 96.7 µM | TGI (SW-620 colon): > 100 µM | TGI (MOLT-4 leukemia): > 100 µM | TGI (MDA-MB-435): > 100 µM | TGI (NCI-H460 lung): 20.5 µM | TGI (NCI-H226 lung): > 75.7 µM | TGI (MALME-3M melanoma): 9.26 µM | TGI (SK-MEL-28 melanoma): > 66.1 µM | TGI (UACC-62 melanoma): 18.6 µM | TGI (HT29 colon): > 100 µM | TGI (LOX IMVI melanoma): > 31.6 µM | TGI (MCF7 breast): > 100 µM | TGI (MDA-N): 58.5 µM | TGI (OVCAR-5 ovarian): 70 µM | TGI (HCC-2998 colon): 19.8 µM | TGI (SK-MEL-5 melanoma): 41.2 µM | TGI (NCI-H23 lung): 18.7 µM

NC1=C(c2nc(-c3ccccc3)cs2)C(c2ccco2)c2c(c3ccccc3oc2=O)O1 (configuration not stated)
TGI (SF-268 CNS): > 100 µM | TGI (HCT-15 colon): > 100 µM | TGI (OVCAR-8 ovarian): > 100 µM | TGI (SNB-19 CNS): > 100 µM | TGI (IGROV1 ovarian): > 100 µM | TGI (SNB-75 CNS): > 100 µM | TGI (786-0 renal): > 100 µM | TGI (SK-OV-3 ovarian): > 100 µM | TGI (A498 renal): > 100 µM | TGI (SF-295 CNS): > 100 µM | TGI (HOP-62 NSCLC): > 100 µM | TGI (OVCAR-4 ovarian): > 100 µM | TGI (HS 578T breast): > 100 µM | TGI (UO-31 renal): > 100 µM | TGI (SK-MEL-2 melanoma): > 100 µM | TGI (SR leukemia): > 100 µM | TGI (PC-3 prostate): > 100 µM | TGI (SN12C renal): > 100 µM | TGI (UACC-257 melanoma): > 100 µM | TGI (U251 CNS): > 100 µM | TGI (SF-539 CNS): > 100 µM | TGI (NCI/ADR-RES ovarian): > 100 µM | TGI (MDA-MB-231 breast): > 100 µM | TGI (K-562 leukemia): > 100 µM | TGI (COLO 205 colon): > 100 µM | TGI (ACHN renal): > 100 µM | TGI (EKVX NSCLC): > 100 µM | TGI (CCRF-CEM leukemia): > 100 µM | TGI (DU-145 prostate): > 100 µM | TGI (HCT-116 colon): > 100 µM | TGI (CAKI-1 renal): > 100 µM | TGI (OVCAR-3 ovarian): > 100 µM | TGI (RXF 393 renal): > 100 µM | TGI (M14 melanoma): > 100 µM | TGI (HL-60(TB) leukemia): > 100 µM | TGI (A549 NSCLC): > 100 µM | TGI (HOP-92 NSCLC): > 100 µM | TGI (NCI-H522 lung): > 100 µM | TGI (TK-10 renal): > 100 µM | TGI (SW-620 colon): > 100 µM | TGI (MDA-MB-435): > 100 µM | TGI (NCI-H460 lung): > 100 µM | TGI (NCI-H226 lung): > 100 µM | TGI (MALME-3M melanoma): > 100 µM | TGI (SK-MEL-28 melanoma): > 100 µM | TGI (UACC-62 melanoma): > 100 µM | TGI (HT29 colon): > 100 µM | TGI (BT-549 breast): > 100 µM | TGI (LOX IMVI melanoma): > 100 µM | TGI (MCF7 breast): > 100 µM | TGI (MDA-N): > 100 µM | TGI (OVCAR-5 ovarian): > 100 µM | TGI (HCC-2998 colon): > 100 µM | TGI (SK-MEL-5 melanoma): > 100 µM | TGI (NCI-H23 lung): > 100 µM
